Reference: PubChem BioAssay (NCI)
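The compound was tested at five concentrations on cells cultured in 96-well plates, with a 48-hour exposure period. GI50: concentration for 50% inhibition of growth. The concentration for full growth arrest is given as TGI.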

Experiments:
Assay in all cases: growth of human tumour cells (NCI), 48 h
[1] = system: SNB-75 CNS
[2] = system: CCRF-CEM leukemia
[3] = system: UACC-257 melanoma
[4] = system: HL-60(TB) leukemia
[5] = system: K-562 leukemia
[6] = system: HOP-62 NSCLC
[7] = system: LOX IMVI melanoma
[8] = system: CAKI-1 renal
[9] = system: OVCAR-5 ovarian
[10] = system: RXF 393 renal

SMILES	GI50 [1]	TGI [1]	GI50 [2]	TGI [2]	GI50 [3]	TGI [3]	GI50 [4]	TGI [4]	GI50 [5]	TGI [5]	GI50 [6]	TGI [6]	GI50 [7]	TGI [7]	GI50 [8]	TGI [8]	TGI [9]	TGI [10]	GI50 [9]	GI50 [10]
N[C@@H]1CCCC[C@@H]1N.O=C([O-])CN(CP(=O)([O-])[O-])CP(=O)([O-])[O-].[Pt+2]	> 100 µM	> 100 µM	29 µM	93.4 µM	> 100 µM	> 100 µM	> 100 µM	> 100 µM	> 100 µM	> 100 µM	> 100 µM	> 100 µM	> 100 µM	> 100 µM	> 100 µM	> 100 µM				
COC(=O)/C(=C/c1ccc(OC)cc1)NC(=O)c1ccccc1		> 100 µM		> 100 µM		> 100 µM		> 100 µM		> 100 µM				> 100 µM		> 100 µM	> 100 µM	> 100 µM		
OCC#Cc1ccccc1C#Cc1ccc(C#Cc2ccccc2C#CCO)s1	48.1 µM	78.7 µM			22.1 µM	42.7 µM	43.4 µM	> 100 µM	64 µM	> 100 µM	22.6 µM	53.7 µM	20.4 µM	53.6 µM	12.1 µM	25.1 µM	46.5 µM	39.6 µM	22.1 µM	19.6 µM
O=[N+]([O-])/C=C\c1c[nH]c2ccc(OCc3ccccc3)cc12				> 100 µM		3.73 µM		8.78 µM		6.88 µM		29.4 µM		3.5 µM		53.5 µM	25.6 µM	6.73 µM		
O=[N+]([O-])c1ccc(/C=C(/c2ccc([N+](=O)[O-])o2)S(=O)(=O)c2ccccc2)o1		33.7 µM				3.66 µM		8.67 µM		10.2 µM		38.3 µM				33 µM	33.9 µM	> 100 µM		
COc1ccc2c(c1)cn1c3ccc(O)cc3[nH]c(=O)c21	0.227 µM	13.6 µM	0.149 µM	4.66 µM	0.836 µM	18.5 µM	0.216 µM	1.2 µM			0.258 µM	17.9 µM	0.072 µM	1.96 µM	0.302 µM	16.3 µM	21.5 µM	0.627 µM	2.79 µM	0.0592 µM
COc1cc(NCC2COc3c(ccc(OC)c3OC)C2=O)c([N+](=O)[O-])cc1OC (configuration not stated)		> 100 µM		> 100 µM		> 100 µM		> 100 µM		> 100 µM		> 100 µM		> 100 µM		> 100 µM	> 100 µM			
Cn1c2ccccc2c(=O)c2c([N+](=O)[O-])ccc(NCCN)c21		26.8 µM				26.9 µM		22.9 µM				30.7 µM				25.9 µM	26.9 µM	23.3 µM		
c1cc[c]([Sn]([S]c2cccc3cccnc23)([S]c2cccc3cccnc23)[c]2ccccc2)cc1	0.192 µM	1.16 µM	0.0948 µM	0.429 µM	0.205 µM	0.559 µM	0.172 µM	0.563 µM			0.411 µM	1.75 µM	0.186 µM	0.402 µM	0.134 µM	0.43 µM	2.69 µM	0.23 µM	1.34 µM	0.109 µM
C(=C\c1nccc2c1[nH]c1ccccc12)/c1ccccc1	2.76 µM	21.9 µM	2.1 µM	6.03 µM	17.8 µM	76.7 µM	2.07 µM	5.55 µM	2.25 µM	37.2 µM	2.97 µM	22.3 µM	2.99 µM	12.2 µM			> 100 µM	4.66 µM	3.04 µM	2.06 µM
CC(O)C(O)C(O)C(/C=N\Nc1ccccc1)=N/Nc1ccccc1 (configuration not stated)		38.4 µM		52.3 µM				45.3 µM		40.8 µM		30.3 µM		18.1 µM		11.1 µM	27.5 µM			
COc1cc(-c2cc(/C=C3\C(=O)Nc4ccccc43)[nH]n2)cc(OC)c1OC	1.18 µM	10 µM	2.28 µM	6.96 µM	2.37 µM	6.56 µM	2.62 µM	7.66 µM	2.65 µM	11.5 µM	3.2 µM	14.9 µM	2.43 µM	7.94 µM			27.9 µM	22.5 µM	5.16 µM	8.83 µM
C/C1=C\C/C=C(\C)[C@H]2CC(CC/C(C)=C/CC1)[C@](C)(C=O)O2	> 100 µM	> 100 µM			> 100 µM	> 100 µM	25.6 µM	81.2 µM	54.8 µM	> 100 µM	40.6 µM	> 100 µM	22.2 µM	48.5 µM	36.4 µM	99.2 µM	> 100 µM	> 100 µM	> 100 µM	> 100 µM
Cc1ccc(NC(=O)C2C(=O)N(c3ccc(C)c(C)c3)C(=O)/C2=N\NC(N)=S)cc1C (configuration not stated)		> 100 µM		> 100 µM		> 100 µM		> 100 µM		> 100 µM				> 100 µM		> 100 µM				
COC(=O)OCc1ccc2c(c1)C(=O)c1c-2n(CCCBr)c(=O)c2cc([N+](=O)[O-])ccc12	14.9 µM	34.4 µM	45.9 µM	> 100 µM	> 100 µM	> 100 µM	70.2 µM	> 100 µM			27.7 µM	> 100 µM	74.3 µM	> 100 µM	35.5 µM	75.4 µM	> 100 µM	8.45 µM	> 100 µM	0.16 µM
CN1CCN(c2ccc(NC3=C(Cl)C(=O)c4ncccc4C3=O)cc2C#N)CC1	11.7 µM	24.8 µM			1.73 µM	3.29 µM	0.316 µM	1.24 µM	0.312 µM	> 100 µM	11.8 µM	34.7 µM	1.51 µM	3.19 µM	1.09 µM	2.31 µM	7.3 µM	2.73 µM	2.75 µM	1.4 µM
